Earlier results on 1 compound are cited in patent publication US7955629B2, “Method of feeding milk replacer with carnitine” (Land O'Lakes Purina Feed LLC, priority 2005, dated 2011).

The structures appear in SMILES notation.

The conditions of data set [1]: ten month old steers; 0.6 and 1.2 grams per day; forty two day trial.
Experiment in data set [2]: not given
The source holds these as a separate data set.

Experiment in data set [3]: not given
This is another data set of the same source.

On to `C[N+](C)(C)CC(O)CC(=O)[O-]` (centres unmarked) [carnitine], for which the “average daily gain compared to the control” value (heifers fed 0.6 and 1.2 grams per day, midpoint of the experiment) was “statistically significantly greater”. Also, the “average daily weight gain, fed or not fed carnitine” value (heifers, end of the forty two day experiment) is on record as “no statistically significant difference”. Also, the “effectiveness of carnitine (backfat depths)” value in data set [1] is reported as “inconclusive”. In addition, the “Acetate to proprionate ratios” value in data set [2] (mature ruminally cannulated steers) is listed as “not effected”. Further, the “nitrogen uptake from the rumen” value in data set [2] (supplementation at high levels in a high roughage diet) was “little effect”. For the same compound, the “milk fat content and milk fat yield” value in data set [3] (dosed directly into the abomasum) is given as “decreased”. Further, the “digestible and metabolized energy from the diet” value in data set [3] (dosed directly into the rumen or abomasum) was “tended to increase”. Further, the Milk production entry in data set [3] (dosed into the rumen or abomasum) is listed as “not affected”.
